Results published in patent US20260248783A1 (ASCLETIS BIOSCIENCE CO., LTD., priority 2021, published 2026).
pEC50, pIC50: −log10 of the molar value.

Legend:
[1] = target: T1, PD-1/PD-L1 (Homo sapiens, UniProt Q9NZQ7); assay: PD-1/PD-L1 Homogeneous Time-Resolved Fluorescence (HTRF) Binding Assay; conditions: PD-1/PD-L1 HTRF activity; 3 nM PD1, 10 nM PD-L1, 25° C.
T1 construct: Recombinant human PD-L1 protein (19-238) with a Histag at the C-terminus; purchased AcroBiosystems PD1-H5229 (PD-L1); PD1-H5257 (PD-1)
In short: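 Human PD-L1 (19-238, His-tag) 10 nM and PD-1 (25-167, Fc-tag) 3 nM preincubated 40 min with inhibitor in PBS pH 7.4, 0.05% Tween-20, 0.1% BSA, 1% DMSO, 25 °C. Eu-anti-human IgG (1 nM) and anti-His-APC (20 nM) added, 60 min, 665/620 nm ratio; IC50 from percent control activity versus log concentration.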

[2] = tested on: PDL1; assay: PDL1 Jurkat-NFAT Reporter Assay; assay type: cell-based; conditions: Homo sapiens; Hep3B-OS8-hPDL1 with Jurkat-NFAT-PD1 cells, 6 hours, luciferase
Description: Example 109. PDL1 Jurkat-NFAT Reporter Assay
Preparation of Hep3B-OS8-hPDL1
(§1) 1. Hep3B-OS8-hPDL1 cells were cultured in 1640 medium supplemented with 10% fetal bovine serum, 1% penicillin and streptomycin, in which 100 μg/mL G418 and Hygromycin B were also added.
2. Cells were re-suspended with RPMI 1640 medium containing 10% FBS and the cell density was adjusted to 1.25×10^5 cells/mL.
3. Cells were seeded into 96-well flat bottom plate (1.25×10^4 cells/100 μL/well).
b. Compounds solutions preparation
4. Removed the medium from pre-plated Hep3B-OS8-PDL1 cells. Washed once with 200 μL Assay Medium.
5. Prepared the Compounds dilutions in RPMI 1640 medium with 10% FBS according to the Layout.
6. Added compounds into each well in a volume of 50 μL in 9 concentrations ([…])}. Keytruda will be included as positive control at the concentration of 5 μg/mL.
7. Incubated for 20-30 min at 37° C., 5% CO2.
c. Preparation of Jurkat-NFAT-PD1
8. Jurkat-NFAT-PD1 cells were cultured in 1640 medium supplemented with 10% fetal bovine serum, 1% penicillin and streptomycin, in which 1000 μg/mL Hygromycin B and […] puromycin were also added.
9. On the second day of assay, the cells were re-suspended with RPMI 1640 medium containing 10% FBS and the cell density was adjusted to 2.5×10^5 cells/mL.
10. […]

[3] = target: T2, extracellular domains of PD-L1 (Homo sapiens, UniProt Q9NZQ7); assay: PD-L1 Dimerization; assay type: biochemical; conditions: PD-L1-Eu and PD-L1-A2, ratio 665 nm/615 nm
T2 construct: specifically dimerize the extracellular domains of PD-L1
Description: Example 108. PD-L1 Dimerization
Compounds were tested in biochemical protein-protein interaction assays to determine if they can specifically dimerize the extracellular domains of PD-L1. • (1) Diluted cpd 1:3 in succession in DMSO for each column for 10 samples • (2) Transferred 0.2 μL cpds solution in each row to 384 assay plate using Echo, each column containing 2 replicates • (3) Added 20 μL prepared mixture include PD-L1-Eu and PD-L1-A2 solution to assay plate, centrifuged at 1000 rpm for 1 min. • (4) Incubated at 25° C. for […]. • (5) Read fluorescence signal on Envision 2104 plate reader. • (6) Read the Ratio (665 nm/615 nm) signal on Envision. • (7) Analyzed the raw data using the equation (V. Data analysis)

[4] = tested on: Hep3B-OS8-hPDL1 and T cells; assay: Hep3B-OS8-hPDL1 and T Cells Co-Culture Assay (IFN-γ by ELISA); assay type: cell-based; conditions: T-cell, Hep3B-OS8-hPDL1 and human CD3+ T cells, 72 hours, read-out: Tumor and T Cell EC50
Description: Example 110. Hep3B-OS8-hPDL1 and T Cells Co-Culture Assay
as §1
2. Hep3B-OS8-hPDL1 cells were harvested and treated with 10 μg/mL mitomycin C at 37° C. for 1.5 h, and the cells were then washed thoroughly with PBS for four times.
3. Cells were re-suspended with RPMI 1640 medium containing 10% FBS and the cell density was adjusted to 5×10^5 cells/mL.
4. Cells were seeded into 96-well flat bottom plate (2.5×10^4 cells/50 μL/well).
b. CD3+ T cells isolation (30 mL blood)
5. The human blood sample from an individual donor was diluted by the same volume of sterile PBS, for instance add 25 mL sterile PBS into 25 mL fresh whole blood and mix sufficiently by gentle shake.
6. Transferred 15 mL Lymphoprep medium into a new 50 mL centrifuge tube.
7. Added the diluted blood sample as soft as possible onto the surface of the Ficoll medium to make sure there is a clear dividing line between the two liquids, and the volume ratio between Ficoll and diluted blood (30 mL) is 1:2.
8. Moved the tube gently to centrifuge, at 1000×g, 25 min, 20° C., with the acceleration (5) and Min deceleration (0) settings during the centrifugation.
9. Four interfaces in all could be observed after the centrifugation, which are layers of plasma, mononuclear cells, the Ficoll medium and RBCs from top to bottom, and move the tube as gently as possible so as keep the four interfaces separated. Absorbed and transferred the second layer of mononuclear cells into another new sterile centrifuge tube carefully, and absorbed certain volume of plasma instead of the Ficoll medium if inevitable.
10. Added sterile PBS of the three times the volume of PBMCs in the tube with PBMC.
11. Washed the cells twice with 5-10 mL PBS before cell counting with cytometer. Centrifuge at 350×g, 10 min, 20° C. With the acceleration (5) and deceleration (5) settings during the centrifugation.
12. Resuspended the cells with recommended medium and adjust the density of the PBMCs to the final concentration of 5×10^7 cells/mL.
13. Isolated CD3+ T cells with EasySep™ Human T Cell Isolation Kit (STEMCELL Technologies #17951), and the cells were seeded into 96-well flat bottom plate (5×10^4 cells/100 μL/well). c. Compounds solutions preparation
14. Prepared the Compounds dilutions in RPMI 1640 medium with 10% FBS according to the Layout. 15. Added compounds into each well in a volume of 50 μL. {3 compounds (GLC01-258, GLC01-269, GLC01-465) in 7 concentrations (0.03, 0.1, 0.3, 1, 3, 10 and 30 μM) and 6 compounds (GLC01-411, GLC01-292, GLC01-445, GLC01-475, GLC01-470 and GLC01-468) in the same concentration (1 μM)}.
16. Keytruda was included as positive control, the concentration was 5 μg/mL. 17. Incubated for 72 hours at 37° C., 5% CO2.
18. Collected supernatant by centrifugation and measure IFN-γ by ELISA.

T1 sequence (Q9NZQ7 19-238): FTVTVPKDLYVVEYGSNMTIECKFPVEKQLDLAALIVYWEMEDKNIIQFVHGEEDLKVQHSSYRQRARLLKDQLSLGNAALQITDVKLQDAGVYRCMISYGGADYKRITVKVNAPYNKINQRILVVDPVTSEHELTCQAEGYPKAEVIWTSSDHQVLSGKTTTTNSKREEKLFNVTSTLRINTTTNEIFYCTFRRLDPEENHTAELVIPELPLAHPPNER
T2 sequence (Q9NZQ7 19-238 limits assumed): as the sequence (Q9NZQ7 19-238) above

| pIC50 [1] | pEC50 [2] | pEC50 [3] | pEC50 [4] | SMILES |
| --- | --- | --- | --- | --- |
| > 8.00 | > 6.30 | – | – | O=C1CC[C@@H](Cn2cnn3cc(-c4cccc(-c5cccc(-c6cc7c(=O)n(C[C@@H]8CCC(=O)N8)cnn7c6)c5Cl)c4Cl)cc3c2=O)N1 [Compound 1, 6,6′-(2,2′-dichloro-[1,1′-biphenyl]-3,3′-diyl)bis(3-((5-oxopyrrolidin-2-yl)methyl)pyrrolo[2,1-f][1,2,4]triazin-4(3H)-one)] |
| 7.00 to 8.00 | ≤ 6.30 | – | – | Cn1c(CNC[C@@H]2CCC(=O)N2)cn2cc(-c3cccc(-c4cccc(-c5cc6c(=O)n(C)c(CNC[C@@H]7CCC(=O)N7)cn6c5)c4Cl)c3Cl)cc2c1=O [Compound 74, 7,7′-(2,2′-dichloro-[1,1′-biphenyl]-3,3′-diyl)bis(2-methyl-3-(((((S)-5-oxopyrrolidin-2-yl)methyl)amino)methyl)pyrrolo[1,2-a]pyrazin-1(2H)-one)] |
| > 8.00 | – | 7.00 to 7.30 | > 7.30 | Cc1cn2nc(-c3cccc(-c4cccc(-c5cc6c(=O)n(CCN[C@@H](CO)C(=O)O)c(C)cn6n5)c4Cl)c3Cl)cc2c(=O)n1CCN[C@@H](CO)C(=O)O [Compound 57, (2S,2'S)-2,2′-((((2,2′-dichloro-[1,1′-biphenyl]-3,3′-diyl)bis(6-methyl-4-oxopyrazolo[1,5-a]pyrazine-2,5(4H)-diyl))bis(ethane-2,1-diyl))bis(azanediyl))bis(3-hydroxypropanoic acid)] |
